Entries after “also recorded” stand apart in the source; their conditions may differ.
Key:
FP receptor = settings: cited from earlier work
[1] = target: prostaglandin receptor EP2 (Homo sapiens, UniProt P43116); settings: 10 μM; cited from earlier work
[2] = target: prostaglandin receptor EP4 (Homo sapiens, UniProt P35408); settings: 10 μM; cited from earlier work
[3] = system: prostaglandin receptor TP; settings: 10 μM; cited from earlier work
[4] = target: T1, prostaglandin receptor DP (Homo sapiens, UniProt Q13258); settings: 10 μM; cited from earlier work
T1 sequence (Q13258 1-359): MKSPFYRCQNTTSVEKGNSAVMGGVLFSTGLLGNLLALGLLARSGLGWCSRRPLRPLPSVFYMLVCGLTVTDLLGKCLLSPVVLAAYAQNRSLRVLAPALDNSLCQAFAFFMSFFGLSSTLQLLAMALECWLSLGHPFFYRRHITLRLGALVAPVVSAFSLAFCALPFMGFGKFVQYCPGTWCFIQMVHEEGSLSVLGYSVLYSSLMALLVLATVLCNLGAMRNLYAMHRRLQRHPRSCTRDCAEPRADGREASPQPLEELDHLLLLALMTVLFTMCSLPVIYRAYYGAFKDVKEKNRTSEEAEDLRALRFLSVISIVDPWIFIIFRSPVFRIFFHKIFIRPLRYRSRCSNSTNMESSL

Ishikawa cells [5] = experiment: Proliferation assay, BrdU incorporation ELISA; type: cell-based, human; settings: for basal proliferation (BrdU incorporation): no PGF2α
Experimental: Proliferation of Ishikawa cells was determined using a BrdU incorporation ELISA (Roche Diagnostics GmbH, Mannheim, Germany). Briefly, Ishikawa cells were seeded at 5×10^3 cells per well in a 96-well plate and allowed to adhere overnight. Cells were next starved for 24 hr with indomethacin 1.5 μg/ml before 24 h PGF2α treatment (1 nM-1 μM) in serum-free medium containing indomethacin. Inhibitors were added to cells for 60 min before PGF2α with the control well receiving the same concentration of vehicle. Following 24 h treatment, cells were labelled with BrdU for 4 h, then fixed and assayed for BrdU incorporation using standard immunohistochemical techniques. Results were plotted as percentages of untreated cells.

human endometrium = experiment: Total inositol phosphate (InsP) assay in human endometrium; type: cell-based
Experimental: (§1) PGF2α stimulation of total InsP production was as described (21). Briefly, tissue samples or Ishikawa cells were incubated with inositol free DMEM containing 1% dialyzed heat-inactivated FCS and 0.5 μCi/well myo-[^3H]inositol (Amersham Pharmacia Biotech) for 48 hours. Medium was removed, and cells washed with 1 ml buffer (140 mM NaCl, 20 mM HEPES, 4 mM KCl, 8 mM glucose, 1 mM MgCl2, 1 mM CaCl2, 1 mg/ml bovine serum albumin) containing 10 mM LiCl. Cells were then incubated for 1 hour at 37° C. in 1 ml buffer with or without inhibitors. Following incubation agonist was added at the required concentration and cells incubated for 1 hour. Reactions were terminated by the removal of agonist and the addition of 500 μl ice cold 10 mM formic acid, which was incubated for 30 minutes at 4° C. Total [^3H] inositol phosphates was separated from the formic acid cell extracts on AG 1-X8 anion exchange resin (Bio-Rad) and eluted with a 1 M ammonium formate/0.1 M formic acid solution. The associated radioactivity was determined by liquid scintillation counting and plotted relative to protein concentrations determined using the modified Lowry method.

PGES = target: T2, PGES (Homo sapiens, UniProt O14684); settings: read-out: IC50 for inhibition of PGES activity; cited from earlier work
T2 sequence (O14684 1-152): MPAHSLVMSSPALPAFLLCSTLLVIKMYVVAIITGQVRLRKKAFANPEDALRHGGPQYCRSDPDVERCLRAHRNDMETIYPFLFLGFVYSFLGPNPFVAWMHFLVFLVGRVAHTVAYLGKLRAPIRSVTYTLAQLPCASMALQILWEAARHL

HCT-8 = HCT-8 human colon adenocarcinoma cell line; cited from earlier work
HT-29 = HT-29 human colon adenocarcinoma cell line; cited from earlier work
Ishikawa cells [6] = experiment: PGF2α-induced ERK phosphorylation in Ishikawa cells; type: cell-based, human; settings: 100 nM, 10 min
Experimental: PGF2α-induced ERK phosphorylation in Ishikawa cells. PGF2α 100 nM was incubated for 10 and 30 min. U73122 2 μM was pre-incubated for 60 min before treatment with PGF2α.

Ishikawa cells [7] = experiment: Total inositol phosphate (InsP) assay in Ishikawa cells; type: cell-based, human; settings: PGF2α 100 nM
Experimental: as §1

prostaglandin receptor EP4, sequence (P35408 whole entry): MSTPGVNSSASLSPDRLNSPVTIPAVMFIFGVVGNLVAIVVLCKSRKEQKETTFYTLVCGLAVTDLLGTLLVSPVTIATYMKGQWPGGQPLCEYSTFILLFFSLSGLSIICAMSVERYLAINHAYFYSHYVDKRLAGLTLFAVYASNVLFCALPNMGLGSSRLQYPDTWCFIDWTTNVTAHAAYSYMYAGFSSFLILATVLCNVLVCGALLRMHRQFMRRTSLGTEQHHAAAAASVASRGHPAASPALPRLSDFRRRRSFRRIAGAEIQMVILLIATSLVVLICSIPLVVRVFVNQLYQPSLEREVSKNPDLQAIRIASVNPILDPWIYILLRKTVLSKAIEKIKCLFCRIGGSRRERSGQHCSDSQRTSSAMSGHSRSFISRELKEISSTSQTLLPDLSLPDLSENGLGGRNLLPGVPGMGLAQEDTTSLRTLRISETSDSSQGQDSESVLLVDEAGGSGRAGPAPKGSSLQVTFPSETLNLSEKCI
prostaglandin receptor EP2, sequence (P43116 whole entry): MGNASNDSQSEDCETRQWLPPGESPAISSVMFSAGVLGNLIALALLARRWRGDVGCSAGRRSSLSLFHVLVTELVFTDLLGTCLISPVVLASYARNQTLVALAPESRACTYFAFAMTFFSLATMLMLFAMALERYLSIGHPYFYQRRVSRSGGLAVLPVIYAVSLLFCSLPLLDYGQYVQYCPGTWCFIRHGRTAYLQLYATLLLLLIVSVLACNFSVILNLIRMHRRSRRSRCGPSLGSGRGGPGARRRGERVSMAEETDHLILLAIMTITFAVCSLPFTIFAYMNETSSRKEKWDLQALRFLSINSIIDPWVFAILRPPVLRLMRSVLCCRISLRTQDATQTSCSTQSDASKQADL

Molecule: CCCCC(F)[C@H](O)/C=C/[C@H]1CC[C@H](O)[C@@H]1C/C=C\CCCC(=O)O (stereo partly drawn) [AL-3138, 11-deoxy-16-fluoro PGF2α]
- FP (PGF2α) receptor agonist activity, in words (FP receptor): weak partial agonist; also recorded: partial agonist of low efficacy
- FP (PGF2α) receptor antagonist activity, in words (FP receptor): highly selective antagonist

Molecule: O=C(O)CCC/C=C\C[C@@H]1[C@@H](/C=C/[C@H](O)C2Cc3ccccc3C2)[C@@H](F)C[C@@H]1O [AL-8810, (5Z, 13E)-(9S,11S,15R)-9,15-dihydroxy-11-fluoro-15-(2-indanyl)-16, 17, 18, 19, 20-pentanor-5,13-prostadienoic acid]
- inhibition of functional responses of EP2 receptor [1]: not to significantly inhibit
- inhibition of functional responses of EP4 receptor [2]: not to significantly inhibit
- inhibition of functional responses of TP receptor [3]: not to significantly inhibit
- inhibition of functional responses of DP receptor [4]: not to significantly inhibit
- FP (PGF2α) receptor agonist activity, in words (FP receptor): weak partial agonist
- FP (PGF2α) receptor antagonist activity, in words (FP receptor): highly selective antagonist; also recorded: micromolar potency

Molecule: COc1cccc(-c2cc(=O)c3ccccc3o2)c1N [PD98059]
- basal proliferation (BrdU incorporation) (Ishikawa cells [5]; PD98059 50 μM pre-treatment): 84.0±5.8%

Molecule: COc1ccc2c(c1)CC[C@@H]1[C@@H]2CC[C@]2(C)[C@@H](NCCCCCCN3C(=O)C=CC3=O)CC[C@@H]12 [U73122]
- effect on PGF2α-induced InsP mobilisation (human endometrium; pre-treatment with U73122 2 μM, PGF2α 100 nM): inhibited
- basal proliferation (BrdU incorporation) (Ishikawa cells [5]; U73122 2 μM pre-incubation): 93.9±1.9%

Molecule: CCCCC/C=C\C\C=C/C=C/C=C/[C@@H](SC[C@H](NC(=O)CC[C@H](N)C(=O)O)C(=O)NCC(=O)O)[C@@H](O)CCCC(=O)O [leukotriene C4]
- IC50 (PGES): 5 µM

Molecule: CSc1ccc(/C=C2/C(C)=C(CC(=O)O)c3cc(F)ccc32)cc1 [sulindac sulphide]
- IC50 (PGES): 80 µM

Molecule: Cc1ccc(S(=O)(=O)NC(=O)NN2CCCCCC2)cc1 [tolazamide]
- FP (PGF2α) receptor antagonist activity, in words (FP receptor): very weak antagonists

Molecule: CCCCNC(=O)NS(=O)(=O)c1ccc(C)cc1 [tolbutamide]
- FP (PGF2α) receptor antagonist activity, in words (FP receptor): very weak antagonists

Molecule: prostaglandin F2α [PGF2α]
- proliferation (HCT-8): lack of proliferation
- concentration giving maximal InsP mobilisation (human endometrium): 100 nM
- total InsP production following treatment (human endometrium): concentration-dependent increase
- proliferation (HT-29): lack of proliferation
- increase in phosphorylated ERK intensity compared to native ERK (Ishikawa cells [6]): 6.6±0.7 fold
- maximum total InsP (Ishikawa cells [7]): 29 cpm/mg protein
- BrdU incorporation (percentage of untreated cells) (Ishikawa cells [5]; PGF2α 100 nM (maximal), 24 h, Ishikawa cells): 136.3±7.48%

From patent US20060166872A1, “Fp receptor antagonists or pgf2 alpha antagonists for treating menorrhagia” (priority 2002, published 2006)
